Measurements reported in patent publication US12084472B2 (Ardelyx, Inc., priority 2015, dated 2024).

Biological target: T1, human TGR5 (Homo sapiens, UniProt Q8TDU6)
T1 construct: expressed in transfected cells; host or cells: HEK293
T1 sequence (Q8TDU6 1-330): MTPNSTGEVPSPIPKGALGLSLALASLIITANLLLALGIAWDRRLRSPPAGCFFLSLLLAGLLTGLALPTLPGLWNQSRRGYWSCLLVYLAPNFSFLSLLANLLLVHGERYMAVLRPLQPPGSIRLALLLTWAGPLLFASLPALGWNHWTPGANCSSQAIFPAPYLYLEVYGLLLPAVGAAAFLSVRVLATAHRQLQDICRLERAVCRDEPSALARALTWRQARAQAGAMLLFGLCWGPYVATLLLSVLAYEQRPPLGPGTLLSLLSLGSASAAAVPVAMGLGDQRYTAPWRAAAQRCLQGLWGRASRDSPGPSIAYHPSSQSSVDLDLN
Assay: Cell-based TGR5 assay (cAMP generation, HTRF)
Conditions: HEK293 cells stably transfected with human TGR5; cAMP by HTRF; 30 minutes at 37° C.; read-out: pEC50 Human TGR5 (converted)
How it was run: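 First, compounds in 3-fold serial dilution were placed in HBSS with 10 mM HEPES pH 7.4 and 0.5 mM IBMX. Next, human TGR5-expressing HEK293 cells were added and incubated 30 min at 37° C. Finally, cAMP was detected by HTRF and pEC50 derived by logistic fitting.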

EC50	Compound
126 to 1000 nM	Cc1ccc(SCCCCN(CCOCCO)C(=O)[C@@H](O)[C@@H](O)[C@H](O)[C@@H](O)CO)cc1COC1(c2cnccc2-c2ccccc2OC2CC2)CC1 [Compound I-551, (2S,3S,4R,5S)-N-(4-{[3-({1-[4-(2-cyclopropoxyphenyl)pyridin-3-yl]cyclopropoxy}methyl)-4-methylphenyl]sulfanyl}butyl)-2,3,4,5,6-pentahydroxy-N-[2-(2-hydroxyethoxy)ethyl]hexanamide]
1260 to 10000 nM	O=C([C@@H](O)[C@@H](O)[C@H](O)[C@@H](O)CO)N(CCCSc1ccc(Cl)c(CNC2(c3cnccc3-c3ccccc3OC3CC3)CC2)c1)C1CCS(=O)(=O)CC1 [Compound I-552, (2S,3S,4R,5S)-N-[3-({4-chloro-3-[({1-[4-(2-cyclopropoxyphenyl)pyridin-3-yl]cyclopropyl}amino)methyl]phenyl}sulfanyl)propyl]-N-(1,1-dioxo-1λ^6-thian-4-yl)-2,3,4,5,6-pentahydroxyhexanamide]
126 to 1000 nM	O=C([C@@H](O)[C@@H](O)[C@H](O)[C@@H](O)CO)N(CCCSc1ccc(Cl)c(CNC2(c3cnccc3-c3ccccc3OC3CC3)CC2)c1)CC1CCOCC1 [Compound I-553, (2S,3S,4R,5S)-N-[3-({4-chloro-3-[({1-[4-(2-cyclopropoxyphenyl)pyridin-3-yl]cyclopropyl}amino)methyl]phenyl}sulfanyl)propyl]-2,3,4,5,6-pentahydroxy-N-(oxan-4-ylmethyl)hexanamide]
126 to 1000 nM	O=C1CCCN1CCCN(CCCCSc1ccc(Cl)c(CNC2(c3cnccc3-c3ccccc3OC3CC3)CC2)c1)C(=O)[C@@H](O)[C@@H](O)[C@H](O)[C@@H](O)CO [Compound I-554, (2S,3S,4R,5S)-N-[4-({4-chloro-3-[({1-[4-(2-cyclopropoxyphenyl)pyridin-3-yl]cyclopropyl}amino)methyl]phenyl}sulfanyl)butyl]-2,3,4,5,6-pentahydroxy-N-[3-(2-oxopyrrolidin-1-yl)propyl]hexanamide]
< 100 nM	CN(CCSc1ccc(Cl)c(COC2(c3cnccc3-c3ccccc3OC3CC3)CC2)c1)C(=O)[C@@H](O)[C@@H](O)[C@H](O)[C@@H](O)CO [Compound I-555, (2S,3S,4R,5S)-N-(2-{[4-chloro-3-({1-[4-(2-cyclopropoxyphenyl)pyridin-3-yl]cyclopropoxy}methyl)phenyl]sulfanyl}ethyl)-2,3,4,5,6-pentahydroxy-N-methylhexanamide]
126 to 1000 nM	O=C([C@@H](O)[C@@H](O)[C@H](O)[C@@H](O)CO)N(CCCSc1ccc(Cl)c(COC2(c3cnccc3-c3ccccc3OC3CC3)CC2)c1)C1CCS(=O)(=O)CC1 [Compound I-556, (2S,3S,4R,5S)-N-(3-{[4-chloro-3-({-[4-(2-cyclopropoxyphenyl)pyridin-3-yl]cyclopropoxy}methyl)phenyl]sulfanyl}propyl)-N-(1,1-dioxo-1λ^6-thian-4-yl)-2,3,4,5,6-pentahydroxyhexanamide]
126 to 1000 nM	O=C([C@@H](O)[C@@H](O)[C@H](O)[C@@H](O)CO)N(CCCCSc1ccc(Cl)c(CNC2(c3cnccc3-c3ccccc3OC3CC3)CC2)c1)CCN1CCS(=O)(=O)CC1 [Compound I-557, (2S,3S,4R,5S)-N-[4-({4-chloro-3-[({1-[4-(2-cyclopropoxyphenyl)pyridin-3-yl]cyclopropyl}amino)methyl]phenyl}sulfanyl)butyl]-N-[2-(1,1-dioxo-1λ^6,4-thiomorpholin-4-yl)ethyl]-2,3,4,5,6-pentahydroxyhexanamide]
126 to 1000 nM	CS(=O)(=O)CCCN(CCCSc1ccc(Cl)c(COC2(c3cnccc3-c3ccccc3OC3CC3)CC2)c1)C(=O)[C@@H](O)[C@@H](O)[C@H](O)[C@@H](O)CO [Compound I-558, (2S,3S,4R,5S)-N-(3-{[4-chloro-3-({1-[4-(2-cyclopropoxyphenyl)pyridin-3-yl]cyclopropoxy}methyl)phenyl]sulfanyl}propyl)-2,3,4,5,6-pentahydroxy-N-(3-methanesulfonylpropyl) hexanamide]
< 100 nM	CS(=O)(=O)CCN(CCCCSc1ccc(Cl)c(COC2(c3cnccc3-c3ccccc3OC3CC3)CC2)c1)C(=O)[C@@H](O)[C@@H](O)[C@H](O)[C@@H](O)CO [Compound I-559, (2S,3S,4R,5S)-N-(4-{[4-chloro-3-({1-[4-(2-cyclopropoxyphenyl)pyridin-3-yl]cyclopropoxy}methyl)phenyl]sulfanyl}butyl)-2,3,4,5,6-pentahydroxy-N-(2-methanesulfonylethyl)hexanamide]
126 to 1000 nM	Cc1ccc(SCCCCN(C(=O)[C@@H](O)[C@@H](O)[C@H](O)[C@@H](O)CO)C2CCOCC2)cc1CNC1(c2cnccc2-c2ccccc2OC2CC2)CC1 [Compound I-560, (2S,3S,4R,5S)-N-[4-({3-[({1-[4-(2-cyclopropoxyphenyl)pyridin-3-yl]cyclopropyl}amino)methyl]-4-methylphenyl}sulfanyl)butyl]-2,3,4,5,6-pentahydroxy-N-(oxan-4-yl)hexanamide]
126 to 1000 nM	Cc1ccc(SCCCCN(CCCS(C)(=O)=O)C(=O)[C@@H](O)[C@@H](O)[C@H](O)[C@@H](O)CO)cc1COC1(c2cnccc2-c2ccccc2OC2CC2)CC1 [Compound I-561, (2S,3S,4R,5S)-N-(4-{[3-({1-[4-(2-cyclopropoxyphenyl)pyridin-3-yl]cyclopropoxy}methyl)-4-methylphenyl]sulfanyl}butyl)-2,3,4,5,6-pentahydroxy-N-(3-methanesulfonylpropyl)hexanamide]
126 to 1000 nM	Cc1ccc(SCCCCN(C(=O)[C@@H](O)[C@@H](O)[C@H](O)[C@@H](O)CO)C2CCOCC2)cc1COC1(c2cnccc2-c2ccccc2OC2CC2)CC1 [Compound I-562, (2S,3S,4R,5S)-N-(4-{[3-({1-[4-(2-cyclopropoxyphenyl)pyridin-3-yl]cyclopropoxy}methyl)-4-methylphenyl]sulfanyl}butyl)-2,3,4,5,6-pentahydroxy-N-(oxan-4-yl)hexanamide]
126 to 1000 nM	CC(=O)NCCN(CCCCSc1ccc(Cl)c(CNC2(c3cnccc3-c3ccccc3OC3CC3)CC2)c1)C(=O)[C@@H](O)[C@@H](O)[C@H](O)[C@@H](O)CO [Compound I-563, (2S,3S,4R,5S)-N-[4-({4-chloro-3-[({1-[4-(2-cyclopropoxyphenyl)pyridin-3-yl]cyclopropyl}amino)methyl]phenyl}sulfanyl)butyl]-N-(2-acetamidoethyl)-2,3,4,5,6-pentahydroxyhexanamide]
< 100 nM	CC(=O)NCCN(CCCCSc1ccc(Cl)c(COC2(c3cnccc3-c3ccccc3OC3CC3)CC2)c1)C(=O)[C@@H](O)[C@@H](O)[C@H](O)[C@@H](O)CO [Compound I-564, (2S,3S,4R,5S)-N-(4-{[4-chloro-3-({1-[4-(2-cyclopropoxyphenyl)pyridin-3-yl]cyclopropoxy}methyl)phenyl]sulfanyl}butyl)-N-(2-acetamidoethyl)-2,3,4,5,6-pentahydroxyhexanamide]
126 to 1000 nM	O=C([C@@H](O)[C@@H](O)[C@H](O)[C@@H](O)CO)N(CCCSc1ccc(Cl)c(COC2(c3cnccc3-c3ccccc3OC3CC3)CC2)c1)C1CCOCC1 [Compound I-565, (2S,3S,4R,5S)-N-(3-{[4-chloro-3-({1-[4-(2-cyclopropoxyphenyl)pyridin-3-yl]cyclopropoxy}methyl)phenyl]sulfanyl}propyl)-2,3,4,5,6-pentahydroxy-N-(oxan-4-yl)hexanamide]
< 100 nM	CC(=O)NCCCN(CCCCSc1ccc(Cl)c(COC2(c3cnccc3-c3ccccc3OC3CC3)CC2)c1)C(=O)[C@@H](O)[C@@H](O)[C@H](O)[C@@H](O)CO [Compound I-566, (2S,3S,4R,5S)-N-(4-{[4-chloro-3-({1-[4-(2-cyclopropoxyphenyl)pyridin-3-yl]cyclopropoxy}methyl)phenyl]sulfanyl}butyl)-N-(3-acetamidopropyl)-2,3,4,5,6-pentahydroxyhexanamide]
126 to 1000 nM	CC(=O)NCCCCN(CCCCSc1ccc(Cl)c(CNC2(c3cnccc3-c3ccccc3OC3CC3)CC2)c1)C(=O)[C@@H](O)[C@@H](O)[C@H](O)[C@@H](O)CO [Compound I-567, (2S,3S,4R,5S)-N-[4-({4-chloro-3-[({1-[4-(2-cyclopropoxyphenyl)pyridin-3-yl]cyclopropyl}amino)methyl]phenyl}sulfanyl)butyl]-N-(4-acetamidobutyl)-2,3,4,5,6-pentahydroxyhexanamide]
< 100 nM	CC(=O)NCCCCN(CCCCSc1ccc(Cl)c(COC2(c3cnccc3-c3ccccc3OC3CC3)CC2)c1)C(=O)[C@@H](O)[C@@H](O)[C@H](O)[C@@H](O)CO [Compound I-568, (2S,3S,4R,5S)-N-(4-{[4-chloro-3-({1-[4-(2-cyclopropoxyphenyl)pyridin-3-yl]cyclopropoxy}methyl)phenyl]sulfanyl}butyl)-N-(4-acetamidobutyl)-2,3,4,5,6-pentahydroxyhexanamide]
126 to 1000 nM	O=C([C@@H](O)[C@@H](O)[C@H](O)[C@@H](O)CO)N(CCCCSc1ccc(Cl)c(COC2(c3cnccc3-c3ccccc3OC3CC3)CC2)c1)C1CCS(=O)(=O)CC1 [Compound I-569, (2S,3S,4R,5S)-N-(4-{[4-chloro-3-({1-[4-(2-cyclopropoxyphenyl)pyridin-3-yl]cyclopropoxy}methyl)phenyl]sulfanyl}butyl)-N-(1,1-dioxo-1λ^6-thian-4-yl)-2,3,4,5,6-pentahydroxyhexanamide]
